Reference: article PMC3899525 (Cell, 2013)

Biological target: T1, Gr21a/Gr63a heteromeric CO2 receptor (ab1C neuron) (Drosophila melanogaster, UniProt Q9VPT1+Q9VZL7)
T1 sequence (Q9VPT1 1-447): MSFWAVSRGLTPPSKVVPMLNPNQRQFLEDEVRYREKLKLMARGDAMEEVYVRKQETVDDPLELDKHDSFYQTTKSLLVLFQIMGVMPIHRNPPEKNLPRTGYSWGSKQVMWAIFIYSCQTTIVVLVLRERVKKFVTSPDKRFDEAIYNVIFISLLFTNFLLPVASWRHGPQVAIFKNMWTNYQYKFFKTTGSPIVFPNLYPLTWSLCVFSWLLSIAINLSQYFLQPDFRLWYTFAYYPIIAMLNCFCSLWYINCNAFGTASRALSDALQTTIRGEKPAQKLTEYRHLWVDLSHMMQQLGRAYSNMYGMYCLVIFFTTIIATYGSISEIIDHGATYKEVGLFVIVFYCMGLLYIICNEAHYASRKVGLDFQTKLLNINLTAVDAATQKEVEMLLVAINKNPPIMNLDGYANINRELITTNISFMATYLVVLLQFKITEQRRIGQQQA
T1 sequence (Q9VZL7 1-512): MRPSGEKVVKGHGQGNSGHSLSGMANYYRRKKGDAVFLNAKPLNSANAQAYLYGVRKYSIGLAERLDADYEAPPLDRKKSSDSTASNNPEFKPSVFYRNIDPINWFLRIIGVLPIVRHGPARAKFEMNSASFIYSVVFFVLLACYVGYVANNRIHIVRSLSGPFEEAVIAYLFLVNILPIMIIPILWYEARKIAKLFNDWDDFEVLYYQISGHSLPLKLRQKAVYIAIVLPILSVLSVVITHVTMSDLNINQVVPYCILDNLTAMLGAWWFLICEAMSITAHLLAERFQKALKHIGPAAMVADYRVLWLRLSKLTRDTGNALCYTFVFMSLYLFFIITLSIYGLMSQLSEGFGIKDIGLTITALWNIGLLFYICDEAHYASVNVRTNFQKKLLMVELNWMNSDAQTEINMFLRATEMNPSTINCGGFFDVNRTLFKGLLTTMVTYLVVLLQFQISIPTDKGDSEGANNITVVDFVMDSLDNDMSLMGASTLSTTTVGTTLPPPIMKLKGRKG
Experiment: single-sensillum recording of ab1C neuron
Type: cell-based
Details: inhibitor; orco mutant flies; native neuron in vivo

CCOC(=O)C(C)=O [ethyl pyruvate]
single-sensillum recording of ab1C neuron: the cpA inhibitor ethyl pyruvate also effectively inhibited the ab1C neuron
